Counter-ions that a name gives are not always drawn. One block for each compound: values may come before it. Activity calls are given as the source filed them.
Tests used:
[1] = CellTiter-Glo luminescence survival assay, SW480 colon tumor line, concentration-response curve, half-maximal inhibitory concentration (AID 1117338); assay type: functional
[2] = RKO cell viability reduction, dose response, CellTiter-Glo luminescence (AID 1117322); assay type: functional
[3] = cytotoxicity toward HCT116 cells – cell-based, CellTiter-Glo luminescence, IC50, dose response (AID 1117332); assay type: functional; conditions: HCT-116
[4] = SNU-C1 cell viability reduction, dose response, CellTiter-Glo luminescence (AID 1117323); assay type: functional, cell-based
[5] = cytotoxicity toward Colo320 cells – cell-based, CellTiter-Glo luminescence, IC50, dose response (AID 1117334); assay type: functional; conditions: COLO 320
[6] = cytotoxicity toward HT-29 cells – cell-based, CellTiter-Glo luminescence, IC50, dose response (AID 1117330); assay type: functional
[7] = Reduced DLD-1 viability, concentration-response, CellTiter-Glo luminescence (AID 1117352); assay type: functional
[8] = HCT116 cell viability decrease, GSK3B pretreatment – CellTiter-Glo, IC50, dose response (AID 1117339); assay type: functional; conditions: HCT-116
[9] = target: Protein Tat (Human immunodeficiency virus type 1 group M subtype B (isolate HXB2)(HIV-1), UniProt P04608); assay type: functional;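 note: tat binding to TAR RNA read out by fluorescence polarization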
Chain of Protein Tat (P04608 whole entry): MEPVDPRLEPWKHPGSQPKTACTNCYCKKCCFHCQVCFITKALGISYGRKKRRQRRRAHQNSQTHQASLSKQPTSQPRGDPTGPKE

[10] = target: T1, SUMO-activating enzyme (Homo sapiens, UniProt Q9UBT2); test: blockers of UBC9-mediated SUMO conjugation – biochemical, AlphaScreen, SUMOylation inhibitor project, confirmation (AID 2018); assay type: functional
T1 sequence (Q9UBE0 whole entry): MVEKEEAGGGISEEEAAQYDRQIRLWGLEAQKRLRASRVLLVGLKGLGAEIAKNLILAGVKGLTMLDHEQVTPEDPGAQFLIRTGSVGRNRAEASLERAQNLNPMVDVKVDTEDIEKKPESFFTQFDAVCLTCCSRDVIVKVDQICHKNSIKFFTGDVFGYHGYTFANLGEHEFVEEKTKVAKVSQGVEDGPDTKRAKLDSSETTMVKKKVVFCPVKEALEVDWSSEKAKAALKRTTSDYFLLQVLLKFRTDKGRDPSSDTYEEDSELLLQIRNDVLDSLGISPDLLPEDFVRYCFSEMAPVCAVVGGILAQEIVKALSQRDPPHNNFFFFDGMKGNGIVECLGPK
T1 sequence (Q9UBT2 whole entry): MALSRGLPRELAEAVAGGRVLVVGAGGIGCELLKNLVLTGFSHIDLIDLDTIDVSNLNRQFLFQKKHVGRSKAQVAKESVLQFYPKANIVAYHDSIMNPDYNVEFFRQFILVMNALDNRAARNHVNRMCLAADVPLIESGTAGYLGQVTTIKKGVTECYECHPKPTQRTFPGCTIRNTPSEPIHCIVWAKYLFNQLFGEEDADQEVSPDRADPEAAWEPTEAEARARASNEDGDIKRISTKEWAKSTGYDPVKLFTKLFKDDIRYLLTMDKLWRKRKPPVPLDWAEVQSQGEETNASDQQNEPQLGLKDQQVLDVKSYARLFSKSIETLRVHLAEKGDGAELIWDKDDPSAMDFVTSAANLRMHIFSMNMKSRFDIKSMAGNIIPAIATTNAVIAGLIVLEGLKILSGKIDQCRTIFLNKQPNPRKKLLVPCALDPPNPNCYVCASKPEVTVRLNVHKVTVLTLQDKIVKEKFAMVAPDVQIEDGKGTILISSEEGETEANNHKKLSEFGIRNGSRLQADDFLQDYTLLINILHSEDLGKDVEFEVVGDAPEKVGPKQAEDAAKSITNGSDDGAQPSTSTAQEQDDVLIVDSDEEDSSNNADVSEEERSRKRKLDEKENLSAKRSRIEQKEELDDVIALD

[11] = target: T1, SUMO-activating enzyme; test: blockers of SAE1/SAE2–UBC9 SUMO transfer – biochemical, HTRF, uHTS, primary screen (AID 2006); assay type: protein-complex assay
[12] = target: T2, Apoptotic protease-activating factor 1 (Homo sapiens, UniProt O14727); assay type: functional
T2 sequence (O14727 whole entry): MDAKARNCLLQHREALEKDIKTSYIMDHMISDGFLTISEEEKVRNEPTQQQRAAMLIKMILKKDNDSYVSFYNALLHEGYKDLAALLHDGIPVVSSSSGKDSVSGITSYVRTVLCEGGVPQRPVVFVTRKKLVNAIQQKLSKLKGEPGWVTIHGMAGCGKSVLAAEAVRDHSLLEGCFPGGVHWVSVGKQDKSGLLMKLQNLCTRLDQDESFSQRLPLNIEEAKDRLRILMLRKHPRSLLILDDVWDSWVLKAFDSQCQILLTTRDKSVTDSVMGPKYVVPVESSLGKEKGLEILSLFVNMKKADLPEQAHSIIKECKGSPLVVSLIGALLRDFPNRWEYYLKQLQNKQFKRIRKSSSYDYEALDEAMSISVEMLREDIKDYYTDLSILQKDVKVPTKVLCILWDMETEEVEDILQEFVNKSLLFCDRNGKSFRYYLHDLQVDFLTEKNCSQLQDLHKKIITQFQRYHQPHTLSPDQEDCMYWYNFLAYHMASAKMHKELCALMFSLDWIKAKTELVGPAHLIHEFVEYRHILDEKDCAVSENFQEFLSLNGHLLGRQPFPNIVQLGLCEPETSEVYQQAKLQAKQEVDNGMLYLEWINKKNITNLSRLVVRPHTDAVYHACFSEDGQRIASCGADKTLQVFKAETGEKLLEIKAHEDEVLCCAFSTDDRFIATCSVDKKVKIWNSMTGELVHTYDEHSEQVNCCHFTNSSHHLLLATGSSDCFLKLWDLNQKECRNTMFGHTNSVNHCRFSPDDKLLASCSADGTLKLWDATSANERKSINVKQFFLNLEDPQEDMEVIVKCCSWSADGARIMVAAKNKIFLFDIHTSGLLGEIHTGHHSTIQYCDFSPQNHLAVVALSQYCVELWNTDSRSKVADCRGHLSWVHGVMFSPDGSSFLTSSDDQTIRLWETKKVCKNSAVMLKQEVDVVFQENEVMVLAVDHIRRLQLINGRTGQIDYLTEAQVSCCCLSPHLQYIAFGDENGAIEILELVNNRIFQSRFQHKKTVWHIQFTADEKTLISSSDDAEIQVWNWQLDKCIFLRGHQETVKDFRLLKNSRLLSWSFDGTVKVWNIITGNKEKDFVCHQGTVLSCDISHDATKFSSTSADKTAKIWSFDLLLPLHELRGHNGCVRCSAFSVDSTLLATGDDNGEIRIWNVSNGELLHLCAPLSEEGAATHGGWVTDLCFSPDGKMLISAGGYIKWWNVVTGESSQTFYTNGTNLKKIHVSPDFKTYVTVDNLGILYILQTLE

[13] = target: T3, Sentrin-specific protease 8 (Homo sapiens, UniProt Q96LD8); assay type: functional
T3 sequence (Q96LD8 whole entry): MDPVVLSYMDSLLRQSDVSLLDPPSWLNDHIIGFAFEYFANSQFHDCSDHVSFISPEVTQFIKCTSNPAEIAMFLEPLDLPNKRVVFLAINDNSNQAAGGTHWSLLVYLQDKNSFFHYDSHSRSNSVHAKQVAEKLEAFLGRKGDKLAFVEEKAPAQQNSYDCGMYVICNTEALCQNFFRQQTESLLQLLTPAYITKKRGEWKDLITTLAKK

[14] = target: T3, Sentrin-specific protease 8; assay type: functional; remark: listed apart in the source
[15] = target: T4, Caspase-6 (Homo sapiens, UniProt P55212); test: inhibition of CASP6 peptide cleavage – biochemical, VEID-R110 fluorescence, cherry-pick, dose response (AID 720632)
T4 sequence (P55212 whole entry): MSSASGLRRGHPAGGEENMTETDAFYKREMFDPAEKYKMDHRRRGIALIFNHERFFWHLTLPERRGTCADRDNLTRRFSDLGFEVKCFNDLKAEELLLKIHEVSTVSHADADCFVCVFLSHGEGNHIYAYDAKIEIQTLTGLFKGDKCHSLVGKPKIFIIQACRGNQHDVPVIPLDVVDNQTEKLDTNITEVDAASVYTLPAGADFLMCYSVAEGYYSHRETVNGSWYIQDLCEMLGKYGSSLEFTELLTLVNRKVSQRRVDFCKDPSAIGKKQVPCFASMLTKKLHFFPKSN

[16] = target: T5, Histone-lysine N-methyltransferase NSD2 (Homo sapiens, UniProt O96028); assay type: biochemical
T5 sequence (O96028 whole entry): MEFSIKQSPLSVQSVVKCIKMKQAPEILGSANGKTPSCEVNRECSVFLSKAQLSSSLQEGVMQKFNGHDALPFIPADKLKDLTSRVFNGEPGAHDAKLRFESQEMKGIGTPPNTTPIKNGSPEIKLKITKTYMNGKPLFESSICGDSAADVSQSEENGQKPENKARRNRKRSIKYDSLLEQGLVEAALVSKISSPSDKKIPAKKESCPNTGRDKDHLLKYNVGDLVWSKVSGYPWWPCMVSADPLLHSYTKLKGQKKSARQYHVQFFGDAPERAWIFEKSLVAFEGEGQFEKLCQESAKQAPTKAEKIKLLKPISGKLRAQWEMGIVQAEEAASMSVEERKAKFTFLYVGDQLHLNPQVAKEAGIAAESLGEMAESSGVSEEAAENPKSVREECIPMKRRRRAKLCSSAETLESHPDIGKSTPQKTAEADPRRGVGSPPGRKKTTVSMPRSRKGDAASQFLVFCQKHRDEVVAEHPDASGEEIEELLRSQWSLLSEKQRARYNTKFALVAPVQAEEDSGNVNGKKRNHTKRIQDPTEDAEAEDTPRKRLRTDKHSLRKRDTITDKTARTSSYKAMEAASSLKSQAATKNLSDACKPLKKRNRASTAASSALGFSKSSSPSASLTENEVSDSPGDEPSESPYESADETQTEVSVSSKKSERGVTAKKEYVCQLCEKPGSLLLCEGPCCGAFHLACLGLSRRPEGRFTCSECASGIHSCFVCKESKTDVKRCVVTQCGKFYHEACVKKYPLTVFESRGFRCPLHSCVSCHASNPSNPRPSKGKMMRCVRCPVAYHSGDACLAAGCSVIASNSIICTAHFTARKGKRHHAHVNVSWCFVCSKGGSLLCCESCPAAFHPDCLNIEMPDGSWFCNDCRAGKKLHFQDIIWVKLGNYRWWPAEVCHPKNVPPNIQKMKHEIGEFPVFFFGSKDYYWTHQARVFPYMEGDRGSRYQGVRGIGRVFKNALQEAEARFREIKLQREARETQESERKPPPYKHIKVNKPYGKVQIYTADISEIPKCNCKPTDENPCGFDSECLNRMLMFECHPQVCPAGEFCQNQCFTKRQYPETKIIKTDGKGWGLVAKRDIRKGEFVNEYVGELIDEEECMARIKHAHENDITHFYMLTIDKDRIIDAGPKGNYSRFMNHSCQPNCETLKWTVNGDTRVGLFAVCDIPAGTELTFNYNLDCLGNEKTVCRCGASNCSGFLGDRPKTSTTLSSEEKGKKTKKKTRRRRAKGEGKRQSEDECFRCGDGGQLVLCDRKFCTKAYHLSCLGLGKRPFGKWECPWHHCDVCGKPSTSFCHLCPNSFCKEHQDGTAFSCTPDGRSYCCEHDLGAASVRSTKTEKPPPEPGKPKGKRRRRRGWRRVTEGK

[17] = target: Tyrosyl-DNA phosphodiesterase 2 (Homo sapiens, UniProt O95551); test: potency against TDP2 phosphodiesterase activity – biochemical, epi absorbance, IC50, dose response (AID 743297)
Chain of Tyrosyl-DNA phosphodiesterase 2 (O95551 whole entry): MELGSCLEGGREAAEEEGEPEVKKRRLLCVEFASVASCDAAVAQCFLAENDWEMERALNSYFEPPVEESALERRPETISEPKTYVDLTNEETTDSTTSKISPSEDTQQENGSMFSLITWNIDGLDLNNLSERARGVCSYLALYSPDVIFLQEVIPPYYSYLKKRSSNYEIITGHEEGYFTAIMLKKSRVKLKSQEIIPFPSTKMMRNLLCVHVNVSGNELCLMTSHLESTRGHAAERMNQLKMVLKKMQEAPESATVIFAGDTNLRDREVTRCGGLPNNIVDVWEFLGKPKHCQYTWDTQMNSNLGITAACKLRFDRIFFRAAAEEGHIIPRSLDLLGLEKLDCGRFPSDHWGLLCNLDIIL

[18] = target: Glutathione-S-transferase (Schistosoma japonicum, UniProt Q26513); test: GST-antibody interaction or FRET quenching – biochemical, TR-FRET, artefact control for Vif-APOBEC3G degradation inhibitor project, dose response (AID 1117362); assay type: functional
Chain of Glutathione-S-transferase (Q26513 whole entry): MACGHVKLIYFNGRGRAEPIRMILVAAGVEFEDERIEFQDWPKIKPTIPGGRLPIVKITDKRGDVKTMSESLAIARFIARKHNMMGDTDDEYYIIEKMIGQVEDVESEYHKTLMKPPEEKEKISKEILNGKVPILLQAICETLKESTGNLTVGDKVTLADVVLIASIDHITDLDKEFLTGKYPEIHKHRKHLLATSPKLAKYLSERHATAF

[19] = HIV-1 Vif–A3G interaction blockers – biochemical, TR-FRET, GST-Vif 1-94, biotin-A3G peptide, dose response retest, primary screen (AID 1117319); assay type: functional;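 note: TR-FRET signal of purified GST-Vif binding a biotinylated A3G peptide; inhibitors lower the FRET signal by blocking Vif and A3G binding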

SMILES: NC1=NCC2c3ccccc3Cc3ccccc3N12 (centres undefined) [EPINASTINE HYDROCHLORIDE]
IC50 [1]: > 20 µM (inactive)
IC50 [2]: > 20 µM (inactive)
IC50 [3]: > 20 µM (inactive)
IC50 [4]: > 20 µM (inactive)
IC50 [5]: > 20 µM (inactive)
IC50 [6]: > 20 µM (inactive)
IC50 [7]: > 20 µM (inactive)
IC50 [8]: > 20 µM (inactive)

IC50 [9]: > 100 µM (active)
SMILES: CN1CCN(C(=O)CSc2nc(-c3cccs3)ccc2C#N)CC1

IC50 [10]: 2.7 µM (active)
IC50 [11]: 16.2 µM (active)
IC50 [12]: 16.8 µM (active)
AC50 [15]: 12.6 µM (active)
AC50 [16]: 4.43 µM (active)
IC50 [17]: 9.9 µM (active)
IC50 [18]: > 100 µM (active)
SMILES: CN(C)c1cc(Cl)c2nonc2c1N
IC50 [13]: 8.12 µM (active)
IC50 [14]: 6.83 µM (active)

IC50 [19]: > 100 µM (active)
SMILES: O=C(NCCCN1CCOCC1)C1CC(=O)N(CCc2ccccc2)C1 (centres undefined)

Reference: ChEMBL document CHEMBL1201862, “PubChem BioAssay data set” (2004)
